Where a SMILES comes first, the peptide text is derived from it. The star is where a group is joined. X1 = CC1(C)C(=CC=C2CCCC(C=CC3=[N+](CCCCCC(=O)O)c4ccccc4C3(C)C)=C2*)N(CCCCCC(=O)O)c2ccccc21
Biological target: T1, recombinant human caspase-3 (Homo sapiens, UniProt P42574)
T1 construct: purchased Sigma-Aldrich Chemical Co
T1 sequence (P42574 29-175 limits assumed): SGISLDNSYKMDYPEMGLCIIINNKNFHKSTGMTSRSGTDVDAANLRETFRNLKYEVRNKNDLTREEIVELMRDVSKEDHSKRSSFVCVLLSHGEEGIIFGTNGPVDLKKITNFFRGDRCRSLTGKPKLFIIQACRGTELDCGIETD
T1 sequence (P42574 176-277 limits assumed): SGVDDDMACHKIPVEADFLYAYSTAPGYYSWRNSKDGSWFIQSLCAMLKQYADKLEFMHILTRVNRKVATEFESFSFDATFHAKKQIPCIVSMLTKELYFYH
Experiment: Caspase-3 cleavage (HPLC) and induced self-assembly (TEM) in HEPES buffer
Format: biochemical
Conditions: caspase-3 2 h, substrate-to-enzyme ratio 1 μM/U, HEPES buffer 50 mM pH 7.4, TEM
Procedure: Fig. 2 The structure conformations and self-assembly properties of molecule 1 in aqueous solution. a Illustration of the self-assembly strategy of molecule 1. b CD spectra of molecule 1 and molecule 4 in deionized water at a concentration of 1 μM. c FTIR spectra of molecule 1 in a monomeric state and molecule 4 in a fibrous assembled state. The arrows identify the typical characteristic peaks of the antiparallel β-sheet structure. d TEM image of self-assembled β-sheet nanofibrils of molecule 1 after treatment with caspase-3 (substrate-to-enzyme ratio of 1 μM/U) in HEPES buffer (50 mM, pH 7.4) for 2 h. The manual measurement of the nanofibril diameter is shown in the zoomed image, and the computational simulation result for the length of molecule 4 is inserted. e WAXS and computational simulation results of the β-sheet self-assemblies (molecule 4) identified the β-sheet and laminate spacing of the structures. f The concentration-dependent CD spectra of molecule 4 in the concentration range of 0.5–10 μM. g Time-dependent TEM images of molecule 4 from 10 min to 12 h for monitoring the growth process of the nanofibrous structures. h Temperature-dependent CD intensity changes at 220 nm of molecules 1 and 4 with a heating rate of 1 °C/min and an equilibrium period of 30 s to reveal the self-assembly mechanisms. Scale bar: 100 nm […]

## CC[C@H](C)[C@H](NC(=O)[C@@H]1CCCN1C(=O)[C@@H](NC(=O)[C@H](C)N)C(C)C)C(=O)N[C@@H](C)C(=O)N[C@@H](CCC(N)=O)C(=O)N[C@@H](CCCCN)C(=O)N[C@@H](CC(=O)O)C(=O)N[C@@H](CCC(=O)O)C(=O)N[C@H](C(=O)N[C@@H](CC(=O)O)C(=O)N[C@@H](CCCCN)C(=O)N[C@@H](CC(C)C)C(=O)N[C@H](C(=O)N[C@@H](Cc1ccccc1)C(=O)N[C@@H](Cc1ccccc1)C(=O)N[C@@H](C)C(=O)N[C@@H](CCC(=O)O)C(=O)N[C@@H](CSC1=C(C=CC2=[N+](CCCCCC(=O)O)c3ccccc3C2(C)C)CCCC1=CC=C1N(CCCCCC(=O)O)c2ccccc2C1(C)C)C(=O)NCC(=O)O)C(C)C)C(C)C [molecule 1] (H-AVPIAQKDEVDKLVFFAEC(X1)G-OH)
  diameter of nanofibrils after incubation with caspase-3: approximately 5.8 ± 0.6 nm

Reference: PMC6813295, “A tumour-selective cascade activatable self-detained system for drug delivery and cancer imaging” (Nature Communications, 2019)
